For 12 compounds, inhibition, Activity and Ki results are on record in ChEMBL document CHEMBL2157958, “4-Isoxazolyl-1,4-dihydropyridines exhibit binding at the multidrug-resistance transporter” (Bioorg Med Chem, 2012).

As a reminder, the inhibition is the share of the control response that was lost under treatment. One may read the pKi as the negative decadic logarithm of the Ki, by convention in mol/L.

pKi: −log10 of the molar value.

The target of data set [1] is MDR1 (P-glycoprotein, ABCB1) (Homo sapiens, UniProt P08183). The data set can be described thus: Inhibition of MDR1 in human Caco2 cells assessed as calcein accumulation after 30 mins by fluorescence assay. The data set is classed as cell-based. Also noted: concentration or dose not given beside the values. Particulars: Caco-2 cells.
Data set [2] in a line: Binding affinity at VGCC by patch clamp method. (Patch clamp records ionic current or voltage across a cell membrane.)
The nature of data set [3]: Binding affinity at VGCC.

MDR1 (P-glycoprotein, ABCB1), sequence (P08183 whole entry): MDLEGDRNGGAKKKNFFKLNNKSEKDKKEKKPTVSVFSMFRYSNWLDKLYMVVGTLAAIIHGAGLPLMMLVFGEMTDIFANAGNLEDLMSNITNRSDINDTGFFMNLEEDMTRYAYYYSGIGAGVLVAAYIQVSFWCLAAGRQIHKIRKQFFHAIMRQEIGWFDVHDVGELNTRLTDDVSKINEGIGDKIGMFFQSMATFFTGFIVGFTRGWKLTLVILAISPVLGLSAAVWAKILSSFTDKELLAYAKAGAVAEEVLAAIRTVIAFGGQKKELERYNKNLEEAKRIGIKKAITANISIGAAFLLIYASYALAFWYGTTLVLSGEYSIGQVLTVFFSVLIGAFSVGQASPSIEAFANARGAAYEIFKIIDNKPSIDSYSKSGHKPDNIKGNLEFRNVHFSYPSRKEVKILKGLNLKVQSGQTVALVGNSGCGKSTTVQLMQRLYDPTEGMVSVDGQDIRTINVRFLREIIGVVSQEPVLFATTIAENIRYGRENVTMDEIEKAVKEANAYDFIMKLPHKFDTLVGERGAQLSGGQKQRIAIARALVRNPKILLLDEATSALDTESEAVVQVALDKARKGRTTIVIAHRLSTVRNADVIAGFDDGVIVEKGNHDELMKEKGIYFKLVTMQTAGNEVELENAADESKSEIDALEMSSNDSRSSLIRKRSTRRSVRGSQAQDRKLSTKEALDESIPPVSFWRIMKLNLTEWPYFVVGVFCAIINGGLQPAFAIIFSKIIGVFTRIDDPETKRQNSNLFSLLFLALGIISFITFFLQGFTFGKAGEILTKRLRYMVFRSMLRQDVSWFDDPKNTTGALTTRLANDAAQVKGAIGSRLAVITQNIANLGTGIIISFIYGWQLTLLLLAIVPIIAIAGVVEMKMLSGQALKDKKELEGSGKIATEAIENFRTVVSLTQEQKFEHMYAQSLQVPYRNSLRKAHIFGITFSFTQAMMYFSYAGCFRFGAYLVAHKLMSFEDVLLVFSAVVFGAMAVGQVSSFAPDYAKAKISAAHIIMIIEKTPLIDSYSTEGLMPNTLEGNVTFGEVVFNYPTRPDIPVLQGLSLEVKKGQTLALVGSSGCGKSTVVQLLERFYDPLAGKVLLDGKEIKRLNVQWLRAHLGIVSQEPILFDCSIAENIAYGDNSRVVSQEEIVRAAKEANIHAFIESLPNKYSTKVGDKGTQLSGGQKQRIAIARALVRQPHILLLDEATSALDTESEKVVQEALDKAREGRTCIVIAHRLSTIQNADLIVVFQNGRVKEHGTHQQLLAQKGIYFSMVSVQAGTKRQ

For `CCOC(=O)C1=C(C)N=C(C)/C(=C(/O)OCC)C1c1c(-c2ccc(Cl)cc2)noc1C` (stereo unspecified), in data set [1], the inhibition at 0.5 h is 11.7%.

On to `CCOC(=O)C1=C(C)N=C(C)/C(=C(/O)OCC)C1c1c(C)noc1CCc1cccc2ccccc12` (stereo unspecified), for which the Activity in data set [2] worked out at 0.47 µM. This compound also had a pKi in data set [3] of 8.39. In addition, the inhibition at 0.5 h in data set [1] was 19%.

`CCOC(=O)C1=C(C)N=C(C)/C(=C(/O)OCC)C1c1c(-c2cc(Cl)ccc2OC)noc1C` (stereo unspecified) registered an Activity in data set [2] of 6.86 µM. For the same compound, the inhibition at 0.5 h in data set [1] is 15%.

For `CCOC(=O)C1=C(C)N=C(C)/C(=C(/O)OCC)C1c1c(-c2ccccc2)noc1C` (stereo unspecified), the negative-log Ki (pKi) in data set [3] was 7.86. In addition, in data set [1], the inhibition at 0.5 h is 48.9%.

For the compound `CCOC(=O)C1=C(C)N=C(C)/C(=C(/O)OCC)C1c1c(-c2ccccc2)noc1C(C)C` (stereo unspecified), the inhibition at 0.5 h in data set [1] is 38.4%.

For `CCOC(=O)C1=C(C)NC(C)=C(C(=O)OCC)C1c1c(C)noc1C(C)Cc1cccc2ccccc12` (stereo unspecified), the inhibition at 0.5 h in data set [1] was 38.3%.

Take `CCOC(=O)C1=C(C)N=C(C)/C(=C(/O)OCC)C1c1c(-c2ccccc2Cl)noc1C` (stereo unspecified): the Activity in data set [2] turned out to be 9.68 µM. In data set [1], the inhibition at 0.5 h is 10.9%.

`CCOC(=O)C1=C(C)N=C(C)/C(=C(/O)OCC)C1c1c(-c2ccccc2)noc1CCc1ccccc1` (stereo unspecified) had a pKi in data set [3] of 7.26. In addition, the inhibition at 0.5 h in data set [1] is 27.6%.

For the compound `CCOC(=O)C1=C(C)N=C(C)/C(=C(/O)OCC)C1c1c(-c2ccccc2OC)noc1C` (stereo unspecified), the Activity in data set [2] turned out to be 17.1 µM. The inhibition at 0.5 h in data set [1] is 32.8%.

Regarding `CCOC(=O)C1=C(C)N=C(C)/C(=C(/O)OCC)C1c1c(-c2cccc(Cl)c2)noc1C` (stereo unspecified), in data set [2], the Activity was 1.98 µM. The inhibition at 0.5 h in data set [1] was 26.8%.

`CCOC(=O)C1=C(C)N=C(C)/C(=C(/O)OCC)C1c1c(C)noc1CCc1ccc(-c2ccccc2)cc1` (stereo unspecified) had a pKi in data set [3] of 8.06. In addition, the inhibition at 0.5 h in data set [1] was 18.6%.

On to `CCOC(=O)C1=C(C)NC(C)=C(C(=O)OCC)C1c1c(C)noc1C(C)Cc1cccc(Br)c1` (racemic), for which, in data set [1], the inhibition at 0.5 h is 61.2%.
